Structures are written as SMILES. Where a name gives a salt, the structure may show the parent alone. Read-outs that look alike come from different tables or passages of the source.

What all share (assay): Microculture tetrazolium assay
Holding throughout (format): cell-based

The test system of one assay is T47D. To be noted: Homo sapiens, read-out: IC50.
In the next assay the test system is SKOV3. To be noted: Homo sapiens, SK-OV-3, SKOV3.
Another assay concerns SKVLB. The settings on record: for VLB/OV3: IC50 ratio SKVLB/SKOV3; for IC50: SKVLB.
Another assay has as its system HT29. To be noted: Homo sapiens, HT-29, HT29; read-out: IC50.
For a further assay, the system named is LOX. To be noted: read-out: IC50.

The term IC50 denotes the concentration at which inhibition is half-maximal. As to `C[C@@H]1O[C@@H](O[C@H]2O[C@H](C#N)CC3=C2C(=O)c2cc4ccccc4c(O)c2C3=O)C[C@H](NC(=O)C(F)(F)F)[C@@H]1O` [BCH-2007, (1'S,1R,3S)-3-(6-hydroxy-1-(2',3',6'-trideoxy-3'-trifluoroacetamido-4'-hydroxy-L-lyxohexopyranose)-5,12-dioxo-3,4,5,12-tetrahydroanthraceno-[2,3-c]pyran-3-yl)nitrile], the half-maximal inhibitory concentration (IC50) was determined as 506 nM in the assay with T47D; 433 nM with SKOV3 (read-out: IC50); 2790 nM in the assay with SKVLB (read-out: IC50); 148 nM with HT29; 379 nM in the assay with LOX. Further, the VLB/OV3 in the assay on SKVLB is recorded as 6.44.

For the compound `C[C@@H]1O[C@@H](O[C@@H]2O[C@@H](C#N)CC3=C2C(=O)c2cc4ccccc4c(O)c2C3=O)C[C@H](NC(=O)C(F)(F)F)[C@@H]1O` [BCH-2008, (1'S,1S,3R)-3-(6-hydroxy-1-(2',3',6'-trideoxy-3'-trifluoroacetamido-4'-hydroxy-L-lyxohexopyranose)-5,12-dioxo-3,4,5,12-tetrahydroanthraceno-[2,3-c]pyran-3-yl)nitrile], the IC50 in the assay on T47D was 387 nM; with SKOV3 (read-out: IC50) it was 332 nM; in the assay on SKVLB (read-out: IC50) it was 2180 nM; with HT29, 62.5 nM; in the assay with LOX it was 154 nM. The VLB/OV3 in the assay with SKVLB was 6.57.

Turning to `C[C@@H]1O[C@@H](O[C@H]2O[C@H](c3ccccc3)CC3=C2C(=O)c2cc4ccccc4c(O)c2C3=O)C[C@H](NC(=O)C(F)(F)F)[C@@H]1O` [BCH-2010, (1S, 1R, 3S)-3-(6-hydroxy-1-(2',3',6'-trideoxy-3'-trifluoroacetamido-4'-hydroxy-L-lyxohexopyranose)-5,12-dioxo-3,4,5,12-tetrahydroanthraceno-[2,3-c]pyran-3-yl)benzene], the IC50 was found to be 13500 nM with T47D; 12700 nM in the assay on SKOV3 (read-out: IC50); 28500 nM with SKVLB (read-out: IC50); 10700 nM with HT29; 9250 nM in the assay with LOX. Besides, the VLB/OV3 in the assay with SKVLB is 2.24.

Take `C[C@@H]1O[C@@H](O[C@H]2O[C@H](c3ccccc3)CC3=C2C(=O)c2cc4ccccc4c(O)c2C3=O)C[C@H](N)[C@@H]1O` [BCH-2012, (1'S,1R,3S)-3-(6-hydroxy-1-(2',3',6'-trideoxy-3'-amino-4'-hydroxy-L-lyxohexopyranose)-5,12-dioxo-3,4,5,12-tetrahydroanthraceno-[2,3-c]pyran-3-yl)benzene hydrochloride]: the 50% inhibitory concentration (IC50) worked out at 954 nM in the assay on T47D; 2060 nM in the assay on SKOV3 (read-out: IC50); 4030 nM with SKVLB (read-out: IC50); 565 nM in the assay with HT29; 736 nM in the assay on LOX. In addition, in the assay with SKVLB, the VLB/OV3 was found to be 1.96.

As for `CC[C@@H]1Cc2c(O)c3c(c(O)c2[C@@H](O[C@H]2C[C@H](N)[C@H](O)[C@H](C)O2)O1)C(=O)c1ccccc1C3=O` [BCH-2016, (1'S,1R, 3R)-3-ethyl-5,12-dihydroxy-1-(2',3',6'-trideoxy-3'-amino-L-lyxohexopyranose)-1,2,3,4-tetrahydro-(2-oxygen)-naphthacene-6,11-dione-hydrochloride], the IC50 with T47D was found to be 345 nM; in the assay on SKOV3 (read-out: IC50) it was 93.4 nM; in the assay with SKVLB (read-out: IC50), 670 nM; in the assay on HT29, 130 nM; in the assay with LOX, 59.7 nM. For the same compound, in the assay on SKVLB, the VLB/OV3 was 7.17.

`C[C@@H]1O[C@@H](O[C@H]2O[C@H](S(=O)(=O)c3ccccc3)CC3=C2C(=O)c2cc4ccccc4c(O)c2C3=O)C[C@H](NC(=O)C(F)(F)F)[C@@H]1O` [BCH-2025]: the IC50 in the assay with T47D was 3340 nM; in the assay with SKOV3, 1970 nM; in the assay with SKVLB (read-out: IC50), 6200 nM; in the assay on HT29 it was 644 nM; in the assay on LOX, 1110 nM. Further, the VLB/OV3 with SKVLB stood at 3.15.

In the case of `CC(=O)C1CC2=C(C(=O)c3cc4ccccc4c(O)c3C2=O)C(OC[C@@H](O)CO)O1` (stereo partly drawn) [BCH-2034], the 50% inhibitory concentration (IC50) was determined as 7870 nM in the assay with T47D; 2950 nM in the assay with SKOV3 (read-out: IC50); 7490 nM with SKVLB; 2050 nM in the assay on HT29; 1430 nM in the assay on LOX. The VLB/OV3 in the assay with SKVLB is 2.54.

The values are drawn from US5593970A, “Heterocyclic anthracycline analogs” (priority 1994, dated 1997).
